Patent US8183243B2, “Melanocortin receptor agonists” (LG Life Sciences Ltd., priority 2008, dated 2012)

Target: T1, MC4R (Homo sapiens, UniProt P32245)
T1 construct: expressed in transfected cells; host or cells: HEK (Human Embryonic Kidney) permanent expression cell line HEK MC4R-Luc, co-expressing CRE-luciferase
Experiment: MCR agonistic activity (luciferase assay / cAMP accumulation assay) on MC4R
Format: cell-based
Settings: HEK cell lines expressing MC4R; method A (CRE-luciferase) or B (cAMP accumulation), not said which; read-out: EC50 value, agonistic activity to MC4R (range per group of Examples)
Summary of the method: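 HEK cells stably expressing MC4R with a CRE-luciferase reporter treated 5 hours at 37 °C with serially diluted agonist (≤1% DMSO); luminescence expressed relative to 10 nM NDP-MSH, EC50 at half-maximal signal. Alternatively, cAMP measured after 30 minutes with compound plus 500 μM IBMX by [3H]-cAMP competition binding.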

T1 sequence (P32245 whole entry, species assumed): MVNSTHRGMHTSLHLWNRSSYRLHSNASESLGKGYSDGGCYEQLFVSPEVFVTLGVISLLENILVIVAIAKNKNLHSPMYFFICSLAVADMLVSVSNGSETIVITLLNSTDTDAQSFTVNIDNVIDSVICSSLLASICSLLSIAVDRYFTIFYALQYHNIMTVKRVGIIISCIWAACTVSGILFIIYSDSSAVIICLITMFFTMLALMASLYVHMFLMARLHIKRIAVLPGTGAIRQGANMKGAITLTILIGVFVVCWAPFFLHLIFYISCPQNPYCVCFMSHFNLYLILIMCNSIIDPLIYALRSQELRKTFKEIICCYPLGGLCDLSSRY

| EC50 [nM] | Structure (SMILES) |
| --- | --- |
| 0.1 to 10 | CC(C)(C)C(=O)N(c1ccc(F)cc1F)[C@H]1C[C@@H](C(=O)N2CCNCC2)N(C(=O)[C@@H]2CN(C(C)(C)C)C[C@H]2c2ccc(Cl)cc2)C1 [Example 81] |
| 0.1 to 10 | CN1CCN(C(=O)[C@@H]2C[C@H](N(C(=O)C(C)(C)C)c3ccc(F)cc3F)CN2C(=O)[C@@H]2CN(C(C)(C)C)C[C@H]2c2ccc(F)cc2F)CC1 [Example 82, N-{(3S,5S)-1-{[(3S,4R)-1-tert-butyl-4-(2,4-difluorophenyl)pyrrolidin-3-yl]carbonyl}-5-[(4-methylpiperazin-1-yl)carbonyl]pyrrolidin-3-yl}-N-(2,4-difluorophenyl)-2,2-dimethylpropanamide] |
| 10 to 100 | CN1CCN(C(=O)[C@@H]2C[C@H](N(C(=O)c3ccco3)c3ccc(F)cc3F)CN2C(=O)[C@@H]2CN(C(C)(C)C)C[C@H]2c2ccc(Cl)cc2)CC1 [Example 83, N-{(3S,5S)-1-{[(3S,4R)-1-tert-butyl-4-(4-chlorophenyl)pyrrolidin-3-yl]carbonyl}-5-[(4-methylpiperazin-1-yl)carbonyl]pyrrolidin-3-yl}-N-(2,4-difluorophenyl)-2-furamide] |

More lines, now with the values behind:

| Structure (SMILES) | EC50 [nM] |
| --- | --- |
| CN1CCN(C(=O)[C@@H]2C[C@H](N(C(=O)[C@@H]3CCCO3)[C@H]3CC[C@@H](C)CC3)CN2C(=O)[C@H]2CN(C(C)(C)C)C[C@H]2c2ccc(Cl)cc2)CC1 [Example 74, (2S)-N-{(3S,5S)-1-{[(3R,4R)-1-tert-butyl-4-(4-chlorophenyl)pyrrolidin-3-yl]carbonyl}-5-[(4-methylpiperazin-1-yl)carbonyl]pyrrolidin-3-yl}-N-(cis-4-methylcyclohexyl)tetrahydrofuran-2-carboxamide] | 10 to 100 |
| CN1CCN(C(=O)[C@@H]2C[C@H](N(C(=O)[C@@H]3CCCO3)[C@H]3CC[C@@H](C)CC3)CN2C(=O)[C@@H]2CN(C(C)(C)C)C[C@@H]2c2ccc(Cl)cc2)CC1 [Example 75, (2S)-N-{(3S,5S)-1-{[(3S,4S)-1-tert-butyl-4-(4-chlorophenyl)pyrrolidin-3-yl]carbonyl}-5-[(4-methylpiperazin-1-yl)carbonyl]pyrrolidin-3-yl}-N-(cis-4-methylcyclohexyl)tetrahydrofuran-2-carboxamide] | 1000 to 10000 |
| CN1CCN(C(=O)[C@@H]2C[C@@H](N(C(=O)[C@@H]3CCCO3)[C@H]3CC[C@@H](C)CC3)CN2C(=O)[C@@H]2CN(C(C)(C)C)C[C@H]2c2ccc(Cl)cc2)CC1 [Example 76, (2S)-N-{(3R,5S)-1-{[(3S,4R)-1-tert-butyl-4-(4-chlorophenyl)pyrrolidin-3-yl]carbonyl}-5-[(4-methylpiperazin-1-yl)carbonyl]pyrrolidin-3-yl}-N-(cis-4-methylcyclohexyl)tetrahydrofuran-2-carboxamide] | 100 to 1000 |
| CN1CCN(C(=O)[C@@H]2C[C@H](N(C(=O)[C@@H]3CCCO3)c3ccc(F)cc3F)CN2C(=O)[C@@H]2CN(C(C)(C)C)C[C@H]2c2ccc(Cl)cc2)CC1 [Example 77, (2S)-N-{(3S,5S)-1-{[(3S,4R)-1-tert-butyl-4-(4-chlorophenyl)pyrrolidin-3-yl]carbonyl}-5-[(4-methylpiperazin-1-yl)carbonyl]pyrrolidin-3-yl}-N-(2,4-difluorophenyl)tetrahydrofuran-2-carboxamide] | 10 to 100 |
| CC(C)C(=O)N(c1ccc(F)cc1F)[C@H]1C[C@@H](C(=O)N2CCNCC2)N(C(=O)[C@@H]2CN(C(C)(C)C)C[C@H]2c2ccc(Cl)cc2)C1 [Example 78, N-[(3S,5S)-1-{[(3S,4R)-1-tert-butyl-4-(4-chlorophenyl)pyrrolidin-3-yl]carbonyl}-5-(piperazin-1-ylcarbonyl)pyrrolidin-3-yl]-N-(2,4-difluorophenyl)-2-methylpropanamide] | 0.1 to 10 |
| CN1CCN(C(=O)[C@@H]2C[C@H](N(C(=O)C(C)(C)C)c3ccc(F)cc3F)CN2C(=O)[C@@H]2CN(C(C)(C)C)C[C@H]2c2ccc(Cl)cc2)CC1 [Example 80, N-{(3S,5S)-1-{[(3S,4R)-1-tert-butyl-4-(4-chlorophenyl)pyrrolidin-3-yl]carbonyl}-5-[(4-methylpiperazin-1-yl)carbonyl]pyrrolidin-3-yl}-N-(2,4-difluorophenyl)-2,2-dimethylpropanamide] | 0.1 to 10 |
